Measured values taken from ChEMBL document CHEMBL5365534, “Discovery of a Novel Ketohexokinase Inhibitor with Improved Drug Distribution in Target Tissue for the Treatment of Fructose Metabolic Disease” (J Med Chem, 2023).
Values after ≈ are worked out from the molar mass of the structure shown.

How the values were obtained:
physchem [1] = conditions: buffer, pH 7.4
in vitro [2] = conditions: human, Caco-2
in vitro [3] = conditions: human, Caco-2; remark: listed apart in the source
physchem [4] = experiment: physchem
Ketohexokinase = target: T1, Ketohexokinase (Homo sapiens, UniProt P50053)
T1 sequence (P50053 whole entry): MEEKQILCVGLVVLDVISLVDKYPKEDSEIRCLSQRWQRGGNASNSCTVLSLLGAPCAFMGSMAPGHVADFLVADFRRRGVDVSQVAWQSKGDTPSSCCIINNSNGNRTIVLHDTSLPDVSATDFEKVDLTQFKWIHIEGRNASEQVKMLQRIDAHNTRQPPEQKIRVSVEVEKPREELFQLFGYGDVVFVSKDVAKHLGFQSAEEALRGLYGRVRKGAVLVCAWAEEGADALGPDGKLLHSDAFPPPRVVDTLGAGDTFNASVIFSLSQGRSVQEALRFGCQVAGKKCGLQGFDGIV

in vitro [5] = conditions: human, liver microsomes
in vitro [6] = conditions: rat, liver microsomes
in vitro [7] = conditions: dog, liver microsomes

Structure (SMILES) | logD (physchem [1]) | Papp A→B at 2 h, 10 µM (in vitro [2]) [×10⁻⁶ cm/s] | efflux ratio (in vitro [3]) | solubility kinetic (physchem [4]) [µM] | IC50 (Ketohexokinase) [nM] | microsomal CLint at 2 h, 1 µM (in vitro [5]) [µL/min/mg] | microsomal CLint at 2 h, 1 µM (in vitro [6]) [µL/min/mg] | Kinetic_solubility | microsomal CLint at 2 h, 1 µM (in vitro [7]) [µL/min/mg]
C[C@H]1CCN1c1nc(N2CCC3(CC3C(=O)O)C2)cc(C(F)(F)F)c1C#N (some centres not stated) | 1.73 | 16.2 | 1.78 | > 1000 | 108 | 4.6 | 5.6 | – | –
C[C@H]1CCN1c1nc(N2CCC(C)(CC(=O)O)C2)cc(C(F)(F)F)c1C#N (some centres not stated) | – | – | – | – | > 1000 | – | – | Not Determined(Insoluble) | –
C[C@H]1CCN1c1nc(N2C[C@@H](CC(=O)O)[C@H](O)C2)cc(C(F)(F)F)c1C#N (racemic) | 0.93 | 0.09 | 218 | 889 (≈ 342 µg/mL) | 138 | – | – | – | –
C[C@H]1CCN1c1nc(N2CC[C@H](CCC(=O)O)C2)cc(C(F)(F)F)n1 | – | – | – | – | 849 | – | – | Not Determined(Insoluble) | –
C[C@H]1CCN1c1nc(N2CCC3(CC3C(=O)O)C2)cc(C(F)(F)F)n1 (some centres not stated) | – | – | – | – | > 1000 | – | – | Not Determined(Insoluble) | –
C[C@H]1CCN1c1nc(N2CC(CC(=O)O)C(F)(F)C2)cc(C(F)(F)F)c1C#N (some centres not stated) | 1.48 | 10.9 | 2.48 | > 1000 | 108 | – | – | – | –
O=C(O)CC[C@H]1CCN(c2nc(N3CC4CCCC43)nc3c2CCC3(F)F)C1 (some centres not stated) | – | – | – | – | > 1000 | – | – | Not Determined(Insoluble) | –
C[C@H]1CCN1c1nc(N2CCC3(CC(C(=O)O)C3)C2)cc(C(F)(F)F)c1C#N (some centres not stated) | – | – | – | – | – | 6.2 | 4.5 | – | 5.5

Further compounds by falling IC50 (Ketohexokinase), results first:

logD (physchem [1]) | Papp A→B at 2 h, 10 µM (in vitro [2]) [×10⁻⁶ cm/s] | efflux ratio (in vitro [3]) | solubility kinetic (physchem [4]) [µM] | IC50 (Ketohexokinase) [nM] | microsomal CLint at 2 h, 1 µM (in vitro [5]) [µL/min/mg] | microsomal CLint at 2 h, 1 µM (in vitro [6]) [µL/min/mg] | Kinetic_solubility | microsomal CLint at 2 h, 1 µM (in vitro [7]) [µL/min/mg] | Structure (SMILES)
– | – | – | – | 89.5 | – | – | Not Determined(Insoluble) | – | C[C@H]1CCN1c1nc(N2CC[C@H](CCC(=O)O)C2)c2c(n1)C(F)(F)CCC2
-1.1 | 0.23 | 19.9 | > 1000 | 53.9 | – | – | – | – | C[C@H]1CCN1c1nc(N2CC[C@H](OCC(=O)O)C2)c2c(n1)C(F)(F)CC2
0.01 | 1.47 | 11.2 | 999 (≈ 352 µg/mL) | 49 | – | – | – | – | C[C@H]1CCN1c1nc(N2CC[C@H](CC(=O)O)C2)c2c(n1)C(F)(F)CC2
0.58 | 6.13 | 4.54 | > 1000 | 34.7 | – | – | – | – | C[C@H]1CCN1c1nc(N2C[C@H]3CC[C@H](C(=O)O)[C@H]3C2)c2c(n1)C(F)(F)CC2 (racemic)
0.86 | 5.14 | 7.81 | > 1000 | 25.9 | – | 64.6 | – | – | O=C(O)CC[C@H]1CCN(c2nc(N3CC[C@@H]3C(F)(F)F)nc3c2CCC3(F)F)C1
2.31 | 18.3 | 1.13 | 230 (≈ 90.5 µg/mL) | 21.9 | 10.4 | – | – | – | C[C@H]1CCN1c1nc(N2C[C@H]3CC[C@H](C(=O)O)[C@H]3C2)cc(C(F)(F)F)c1C#N (racemic)
